Assay results: US9850283B2, “Macrocyclic inhibitors of the PD-1/PD-L1 and CD80(B7-1)/PD-L1 protein/protein interactions” (BRISTOL-MYERS SQUIBB COMPANY, priority 2013, dated 2017)
Read-outs that look alike come from different tables or passages of the source. Starred links: 1 amine or outer side, 2 acyl side, 3 side chain; linkers in the order of their positions; H or OH if unused. Positions of bridges follow the written chain, without caps; N, C: chain ends. Non-standard residues stand in square brackets, D forms with d. Residues, ends and D or L forms follow the SMILES beside them. X10 = O=C([C@H](Cc1ccc(F)c(Cl)c1)N[*:1])[*:2]; Phe(4-F) = N[C@@H](Cc1ccc(F)cc1)C(=O)O; 1Nal = N[C@@H](Cc1cccc2ccccc12)C(=O)O; Phe(2-F) = N[C@@H](Cc1ccccc1F)C(=O)O; NMeF = CN[C@@H](Cc1ccccc1)C(=O)O; NMeNle = CCCC[C@H](NC)C(=O)O; dPip = O=C(O)[C@H]1CCCCN1; Sar = CNCC(=O)O

Key:
Human PD-L1/PD-1 = target: T1, Human PD-L1/PD-1 (Homo sapiens, UniProt Q9NZQ7); assay: HTRF PD-1-Ig/PD-L1-His binding assay (human PD-L1)
T1 construct: made in house; host or cells: HEK293T
Procedure, shortened: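 Steps: truncated PD-1-Ig and PD-L1-His fusions are incubated in dPBS containing 0.1% (w/v) BSA and 0.05% (v/v) Tween-20. Detection antibodies are then added (Eu cryptate anti-Ig at 1 nM final, APC anti-His at 20 nM final), and time-resolved FRET is measured.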

[1] = target: T2, LK35.2-hPD-L1 cells / PE-labeled PD-1-Ig (Homo sapiens, UniProt Q9NZQ7); assay: LK35.2-hPD-L1 cell binding high-content screening assay; assay type: cell-based; settings: cell binding assay, cell line not given
T2 construct: expressed in transfected cells; host or cells: LK35.2 mouse B cell line
Procedure, shortened: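 Using overnight-cultured LK35.2-hPD-L1 mouse B cells, compound was co-incubated with phycoerythrin-tagged human PD-1-Ig (final 1 nM) at 37 °C for one hour. Unbound label was removed by triple dPBS washing prior to high-content image acquisition and analysis.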

[2] = cluster symbol, read-out: HTRF IC50 cluster
[3] = cluster symbol, read-out: CBA IC50 cluster

T2 sequence (Q9NZQ7 19-290): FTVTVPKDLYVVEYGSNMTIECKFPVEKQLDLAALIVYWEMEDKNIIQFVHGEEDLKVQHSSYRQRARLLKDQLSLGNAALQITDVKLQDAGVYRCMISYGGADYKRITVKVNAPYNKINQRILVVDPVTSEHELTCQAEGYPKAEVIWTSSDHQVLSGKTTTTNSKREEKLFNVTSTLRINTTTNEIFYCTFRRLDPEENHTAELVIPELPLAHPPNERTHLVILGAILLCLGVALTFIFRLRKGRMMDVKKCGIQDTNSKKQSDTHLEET
T1 sequence (Q9NZQ7 with tags, fused parts or gaps): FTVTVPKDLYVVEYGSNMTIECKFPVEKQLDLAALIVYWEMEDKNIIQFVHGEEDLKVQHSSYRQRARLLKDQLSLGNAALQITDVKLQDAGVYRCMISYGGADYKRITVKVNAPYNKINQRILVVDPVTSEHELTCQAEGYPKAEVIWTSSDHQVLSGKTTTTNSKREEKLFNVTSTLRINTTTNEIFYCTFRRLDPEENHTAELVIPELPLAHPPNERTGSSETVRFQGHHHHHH

SMILES	IC50 (Human PD-L1/PD-1; [2])	IC50 [1, 3]	further results
CCCC[C@H]1C(=O)N(C)CC(=O)N[C@@H](CC(=O)O)C(=O)N[C@@H](C(C)C)C(=O)N(C)[C@@H](Cc2ccccc2)C(=O)N[C@@H](CCC(=O)O)C(=O)N(C)CC(=O)N[C@@H](Cc2c[nH]c3ccccc23)C(=O)N[C@@H](Cc2ccc(O)cc2)C(=O)N[C@@H](CCCNC(=N)N)C(=O)N[C@H](C(=O)NCC(N)=O)CSCC(=O)N[C@@H](Cc2ccccc2)C(=O)N(C)[C@@H](Cc2ccccc2)C(=O)N1C [Example 3559] (HELM PEPTIDE1{[O=C(C[*:3])[*:2]].F.[meF].[CCCC[C@@H](C(=O)[*:2])N(C)[*:1]].[Sar].D.V.[meF].E.[Sar].W.Y.R.C.G.[am]}$PEPTIDE1,PEPTIDE1,1:R3-14:R3$$$V2.0)			IC50 (Human PD-L1/PD-1; HTRF IC50 value, value given instead of cluster): 12.1 nM; IC50 ([1]; CBA IC50 value, value given instead of cluster): 48 nM
CCCC[C@H]1C(=O)N(C)CC(=O)N[C@@H](CC(=O)O)C(=O)N[C@@H](C(C)C)C(=O)N(C)[C@@H](Cc2ccccc2)C(=O)N[C@@H](Cc2ccc(O)cc2)C(=O)N(C)CC(=O)N[C@@H](Cc2c[nH]c3ccccc23)C(=O)N[C@@H](Cc2ccc(O)cc2)C(=O)N2CCC[C@H]2C(=O)N[C@H](C(=O)NCC(N)=O)CSCC(=O)N[C@@H](Cc2ccccc2)C(=O)N(C)[C@@H](Cc2ccccc2)C(=O)N1C [Example 3561] (HELM PEPTIDE1{[O=C(C[*:3])[*:2]].F.[meF].[CCCC[C@@H](C(=O)[*:2])N(C)[*:1]].[Sar].D.V.[meF].Y.[Sar].W.Y.P.C.G.[am]}$PEPTIDE1,PEPTIDE1,1:R3-14:R3$$$V2.0)	> 30.5 nM	> 74.3 nM	
CCCC[C@H]1C(=O)N(C)CC(=O)N[C@@H](CC(=O)O)C(=O)N[C@@H](C(C)C)C(=O)N(C)[C@@H](Cc2ccccc2)C(=O)N[C@H](Cc2ccc(O)cc2)C(=O)N(C)CC(=O)N[C@@H](Cc2c[nH]c3ccccc23)C(=O)N[C@H](Cc2ccc(O)cc2)C(=O)N[C@@H](CC(C)C)C(=O)N[C@H](C(=O)NCC(N)=O)CSCC(=O)N[C@@H](Cc2ccccc2)C(=O)N(C)[C@@H](Cc2ccccc2)C(=O)N1C [Example 3564] (HELM PEPTIDE1{[O=C(C[*:3])[*:2]].F.[meF].[CCCC[C@@H](C(=O)[*:2])N(C)[*:1]].[Sar].D.V.[meF].[dY].[Sar].W.[dY].L.C.G.[am]}$PEPTIDE1,PEPTIDE1,1:R3-14:R3$$$V2.0)			IC50 (Human PD-L1/PD-1; value given instead of cluster, read-out: HTRF IC50 value): > 10000 nM; IC50 ([1]; value given instead of cluster, read-out: CBA IC50 value): > 10000 nM
CCCC[C@H]1C(=O)N(C)CC(=O)N[C@@H](CC(=O)O)C(=O)N[C@@H](C(C)C)C(=O)N(C)[C@@H](Cc2ccccc2)C(=O)N[C@@H](Cc2ccc(O)cc2)C(=O)N(C)CC(=O)N[C@@H](Cc2c[nH]c3ccccc23)C(=O)N[C@@H](Cc2ccc(O)cc2)C(=O)N2CCC[C@@H]2C(=O)N[C@H](C(=O)NCC(N)=O)CSCC(=O)N[C@@H](Cc2ccccc2)C(=O)N(C)[C@@H](Cc2ccccc2)C(=O)N1C [Example 3565] (HELM PEPTIDE1{[O=C(C[*:3])[*:2]].F.[meF].[CCCC[C@@H](C(=O)[*:2])N(C)[*:1]].[Sar].D.V.[meF].Y.[Sar].W.Y.[dP].C.G.[am]}$PEPTIDE1,PEPTIDE1,1:R3-14:R3$$$V2.0)	> 30.5 nM	> 74.3 nM	
CCCC[C@H]1C(=O)N(C)CC(=O)N[C@@H](CC(=O)O)C(=O)N[C@@H](C(C)C)C(=O)N(C)[C@@H](Cc2ccccc2)C(=O)N[C@@H](Cc2ccc(O)cc2)C(=O)N(C)CC(=O)N[C@@H](Cc2c[nH]c3ccccc23)C(=O)N[C@@H](Cc2ccc(O)cc2)C(=O)N[C@@H](CC(C)C)C(=O)N[C@H](C(=O)NCC(N)=O)CSCC(=O)N[C@@H](Cc2ccccc2)C(=O)N[C@@H](Cc2cccc3ccccc23)C(=O)N1C [Example 3569] ({CH2CO}-F[1Nal][NMeNle][Sar]DV[NMeF]Y[Sar]WYLCG-NH2; thioether N-13)	> 30.5 nM	> 74.3 nM	
CCCC[C@H]1C(=O)N(C)CC(=O)N[C@@H](CC(=O)O)C(=O)N[C@@H](C(C)C)C(=O)N[C@@H](Cc2ccc(F)cc2)C(=O)N[C@@H](Cc2ccc(O)cc2)C(=O)N(C)CC(=O)N[C@@H](Cc2c[nH]c3ccccc23)C(=O)N[C@@H](Cc2ccc(O)cc2)C(=O)N[C@@H](CC(C)C)C(=O)N[C@H](C(=O)NCC(N)=O)CSCC(=O)N[C@@H](Cc2ccccc2)C(=O)N(C)[C@@H](Cc2ccccc2)C(=O)N1C [Example 3570] ({CH2CO}-F[NMeF][NMeNle][Sar]DV[Phe(4-F)]Y[Sar]WYLCG-NH2; thioether N-13)	> 30.5 nM	> 74.3 nM	
CCCC[C@H]1C(=O)N(C)CC(=O)N[C@@H](CC(=O)O)C(=O)N[C@@H](C(C)C)C(=O)N(C)[C@@H](Cc2ccccc2)C(=O)N[C@@H](Cc2ccc(O)cc2)C(=O)N2CCCC[C@@H]2C(=O)N[C@@H](Cc2c[nH]c3ccccc23)C(=O)N[C@@H](Cc2ccc(O)cc2)C(=O)N[C@@H](CC(C)C)C(=O)N[C@H](C(=O)NCC(N)=O)CSCC(=O)N[C@@H](Cc2ccccc2)C(=O)N(C)[C@@H](Cc2ccccc2)C(=O)N1C [Example 3572] ({CH2CO}-F[NMeF][NMeNle][Sar]DV[NMeF]Y[dPip]WYLCG-NH2; thioether N-13)	0.385 to 6.74 nM	0.158 to 4.71 nM	

Now from value to compound, other results behind:

IC50 (Human PD-L1/PD-1; [2])	IC50 [1, 3]	SMILES	further results
6.76 to 30.3 nM	0.158 to 4.71 nM	CCCC[C@H]1C(=O)N2CCC[C@@H]2C(=O)N[C@@H](CC(=O)O)C(=O)N[C@@H](C(C)C)C(=O)N(C)[C@@H](Cc2ccccc2)C(=O)N[C@@H](Cc2ccc(O)cc2)C(=O)N(C)CC(=O)N[C@@H](Cc2c[nH]c3ccccc23)C(=O)N[C@@H](Cc2ccc(O)cc2)C(=O)N[C@@H](CC(C)C)C(=O)N[C@H](C(=O)NCC(N)=O)CSCC(=O)N[C@@H](Cc2ccccc2)C(=O)N(C)[C@@H](Cc2ccccc2)C(=O)N1C [Example 3560] (HELM PEPTIDE1{[O=C(C[*:3])[*:2]].F.[meF].[CCCC[C@@H](C(=O)[*:2])N(C)[*:1]].[dP].D.V.[meF].Y.[Sar].W.Y.L.C.G.[am]}$PEPTIDE1,PEPTIDE1,1:R3-14:R3$$$V2.0)	
6.76 to 30.3 nM	0.158 to 4.71 nM	CCCC[C@H]1C(=O)N(C)CC(=O)N[C@@H](CC(=O)O)C(=O)N[C@@H](C(C)C)C(=O)N(C)[C@@H](Cc2ccccc2)C(=O)N[C@@H](Cc2ccc(O)cc2)C(=O)N2CCC[C@@H]2C(=O)N[C@@H](Cc2c[nH]c3ccccc23)C(=O)N[C@@H](Cc2ccc(O)cc2)C(=O)N[C@@H](CC(C)C)C(=O)N[C@H](C(=O)NCC(N)=O)CSCC(=O)N[C@@H](Cc2ccccc2)C(=O)N(C)[C@@H](Cc2ccccc2)C(=O)N1C [Example 3562] (HELM PEPTIDE1{[O=C(C[*:3])[*:2]].F.[meF].[CCCC[C@@H](C(=O)[*:2])N(C)[*:1]].[Sar].D.V.[meF].Y.[dP].W.Y.L.C.G.[am]}$PEPTIDE1,PEPTIDE1,1:R3-14:R3$$$V2.0)	
> 30.5 nM	> 74.3 nM	CCCC[C@H]1C(=O)N(C)CC(=O)N[C@@H](CC(=O)O)C(=O)N[C@@H](C(C)C)C(=O)N(C)[C@@H](Cc2ccccc2)C(=O)N[C@@H](Cc2ccc(O)cc2)C(=O)N(C)CC(=O)N[C@H](Cc2c[nH]c3ccccc23)C(=O)N[C@@H](Cc2ccc(O)cc2)C(=O)N[C@@H](CC(C)C)C(=O)N[C@H](C(=O)NCC(N)=O)CSCC(=O)N[C@@H](Cc2ccccc2)C(=O)N(C)[C@@H](Cc2ccccc2)C(=O)N1C [Example 3563] (HELM PEPTIDE1{[O=C(C[*:3])[*:2]].F.[meF].[CCCC[C@@H](C(=O)[*:2])N(C)[*:1]].[Sar].D.V.[meF].Y.[Sar].[dW].Y.L.C.G.[am]}$PEPTIDE1,PEPTIDE1,1:R3-14:R3$$$V2.0)	
> 30.5 nM	> 74.3 nM	CCCC[C@H]1C(=O)N(C)CC(=O)N[C@@H](CC(=O)O)C(=O)N[C@@H](C(C)C)C(=O)N(C)[C@@H](Cc2ccccc2)C(=O)N[C@@H](Cc2ccc(O)cc2)C(=O)N(C)CC(=O)N[C@@H](Cc2c[nH]c3ccccc23)C(=O)N(C)[C@@H](Cc2ccc(O)cc2)C(=O)N[C@@H](CC(C)C)C(=O)N[C@H](C(=O)NCC(N)=O)CSCC(=O)N[C@@H](Cc2ccccc2)C(=O)N(C)[C@@H](Cc2ccccc2)C(=O)N1C [Example 3566] (HELM PEPTIDE1{[O=C(C[*:3])[*:2]].F.[meF].[CCCC[C@@H](C(=O)[*:2])N(C)[*:1]].[Sar].D.V.[meF].Y.[Sar].W.[meY].L.C.G.[am]}$PEPTIDE1,PEPTIDE1,1:R3-14:R3$$$V2.0)	
0.385 to 6.74 nM	0.158 to 4.71 nM	CCCC[C@H]1C(=O)N(C)CC(=O)N[C@@H](CC(=O)O)C(=O)N[C@@H](C(C)C)C(=O)N(C)[C@@H](Cc2ccccc2)C(=O)N[C@@H](Cc2ccc(O)cc2)C(=O)N(C)CC(=O)N[C@@H](Cc2c[nH]c3ccccc23)C(=O)N[C@@H](Cc2ccc(O)cc2)C(=O)N[C@@H](CC(C)C)C(=O)N[C@H](C(=O)NCC(N)=O)CSCC(=O)N[C@@H](Cc2ccc(F)c(Cl)c2)C(=O)N(C)[C@@H](Cc2ccccc2)C(=O)N1C [Example 3567] ({CH2CO}-[X10][NMeF][NMeNle][Sar]DV[NMeF]Y[Sar]WYLCG-NH2; thioether N-13)	
> 30.5 nM	4.78 to 72.9 nM	CCCC[C@H]1C(=O)N(C)CC(=O)N[C@@H](CC(=O)O)C(=O)N[C@@H](C(C)C)C(=O)N(C)[C@@H](Cc2ccccc2)C(=O)N[C@@H](Cc2ccc(O)cc2)C(=O)N(C)CC(=O)N[C@@H](Cc2c[nH]c3ccccc23)C(=O)N[C@@H](Cc2ccc(O)cc2)C(=O)N[C@@H](CC(C)C)C(=O)N[C@H](C(=O)NCC(N)=O)CSCC(=O)N[C@@H](Cc2ccccc2F)C(=O)N(C)[C@@H](Cc2ccccc2)C(=O)N1C [Example 3568] ({CH2CO}-[Phe(2-F)][NMeF][NMeNle][Sar]DV[NMeF]Y[Sar]WYLCG-NH2; thioether N-13)	
